Measured values: patent US20260285909A1, “PEPTIDES FOR ANTIMICROBIAL THERAPY” (Karl-Franzens-Universität Graz, priority 2023, published 2026)

Experiments:
[1] = system: Gram-negative and Gram-positive bacteria; assay: Antimicrobial activity, overall statement; assay type: cell-based; settings: against both Gram-negative and Gram-positive bacteria
Procedure: (§1) Antimicrobial activity: S. aureus JAR060131, Enterococcus hirae ATCC 10541, Bacillus subitlis 168C trpC2, Escherichia coli ATCC25992 or their variants were cultured to mid-logarithmic phase in tryptic soy broth, brain heart infusion (BHIB), mueller hinton (MHB) or luria broth (LB) and washed once with PBS. Approximately 1×10^6 CFU/ml of PBS were incubated with peptide (final concentrations: 0-102.4 μM) for 0-2 h at 37° C. under shaking conditions. Thereafter, the number of viable bacteria was determined by plating on diagnostic sensitivity agar. Antimicrobial activity is expressed as the 99.9% killing concentration (LC99.9), i.e., the lowest peptide concentration that killed ≥99.9% of bacteria.

[2] = system: human erythrocytes; assay: Hemolysis assay; assay type: cell-based
Procedure: In the context of the present invention, the test whether a peptide has a hemolytic activity which is lower than the hemolytic activity of peptide OP-145 (acetyl-[…]-amide (SEQ ID NO: 50)) may be performed according to any method known in the art, as for instance disclosed in Avrahami & Shai, 2004. In particular, a 0.5% erythrocyte solution in phosphate-buffered saline is exposed to the respective peptide (e.g. at 1 μM or 10 μM or 20 μM or 50 μM) at 37° C. for 1 h; hemolysis is determined by measuring optical density of the cell supernatants at 415 nm. More specifically, the assay may be performed as follows: Whole venous blood of healthy volunteers is collected in citrate tubes. Erythrocytes are isolated by centrifuging the blood for 10 min at 2,000×g and subsequently washing twice in PBS. […] After 1 h at 37° C. under static conditions, the erythrocyte suspensions are centrifuged and the optical density of the supernatants is determined at 415 nm. The percentage of hemolysis may be calculated relative to a positive control (e.g. 1% Triton X-100).
Hemolysis assay: Whole venous blood of healthy volunteers was collected in citrate tubes. […] After 1 h at 37° C. under static conditions, the erythrocyte suspensions were centrifuged and the optical density of the supernatants was determined at 415 nm. The percentage of hemolysis was calculated relative to the positive control (1% Triton X-100).

[3] = system: multi-resistant clinical isolates; assay: Bactericidal activity against multi-resistant clinical isolates (FIG. 4); assay type: cell-based; settings: 1 h treatment with peptides in presence of PBS
Procedure: Bactericidal activity was tested (for 1 h treatment with peptides) in presence of PBS according to de Breij et al., 2018. Bactericidal activity is expressed as LC99.9%—is the lethal concentration causing death in 99.9% cells. Results are ranges of at least three independent experiments. If no range is given, then LC99.9 values were identical in all experiments.
as §1

[4] = system: E. coli ATCC25992; assay: Antimicrobial activity (LC99.9), killing in PBS with plating; assay type: cell-based, Escherichia coli; settings: Gram-negative bacteria, lowest peptide concentration that killed ≥99.9% of bacteria, 37° C.
Procedure: (§2) In the context of the present invention, the test whether a peptide has an antimicrobial activity which is higher than the antimicrobial activity of peptide OP-145 (acetyl-[…]-amide (SEQ ID NO: 50)) may be performed according to any method known in the art, as for instance disclosed in Balouiri et al, 2016. In particular, S. aureus JAR060131, Enterococcus hirae ATCC 10541, Bacillus subitlis 168C trpC2 or Escherichia coli ATCC25992 are cultured to mid-logarithmic phase in tryptic soy broth, brain heart infusion (BHIB), mueller hinton (MHB) or luria broth (LB) and washed once with PBS. […] Thereafter, the number of viable bacteria is determined by plating on diagnostic sensitivity agar. Antimicrobial activity is expressed as the 99.9% killing concentration (LC99.9), i.e., the lowest peptide concentration that killed ≥99.9% of bacteria. […]
as §1, with “Approximately 1×10^6 CFU/ml of PBS were incubated with peptide (final concentrations: 0-102.4 μM) for 0-2 h at 37° C. under shaking conditions.” left out

[5] = system: B. subtilis 168 trpC2; assay: as above; assay type: cell-based, Bacillus subtilis; settings: Gram-positive bacteria, lowest peptide concentration that killed ≥99.9% of bacteria, 37° C.
Procedure: as §2
as §1, with “Approximately 1×10^6 CFU/ml of PBS were incubated with peptide (final concentrations: 0-102.4 μM) for 0-2 h at 37° C. under shaking conditions.” left out

Sequence	antimicrobial activity compared to OP-145I12K [1]	lysis of human erythrocytes [2]	antimicrobial (bactericidal) activity against multi-resistant clinical isolates [3]	LC99.9% [4] [µM]	LC99.9% [5] [µM]
IGKKFKRIVRRKKRFLRKLVRPLR [SEQ ID NO: 3]	improved antimicrobial activity	did not lyse the human erythrocytes	Excellent antimicrobial activity	3.2	3.2
IGKEFKRIVERKWRFLRELVRPLR [SEQ ID NO: 2]	improved antimicrobial activity	did not lyse the human erythrocytes		6.4	3.2
